Assay results: patent US20130202653A1, “3-ARYL-3-HYDROXY-2-AMINO-PROPIONIC ACID AMIDES, 3-HETEROARYL-3-HYDROXY-2-AMINOPROPIONIC ACID AMIDES AND RELATED COMPOUNDS HAVING ANALGESIC AND/OR IMMUNO STIMULANT ACTIVITY” (Allergan, Inc., priority 2005, published 2013)
Counter-ions that a name gives are not always drawn.

Each molecule was assayed on tactile allodynia in the rat Chung model (assay: Chung model: reversal of tactile allodynia (von Frey hairs) after spinal nerve ligation). Conditions: 300 μg/kg IP, peak at 60 min post dose.
Format: in vivo
Text: An art-accepted model or assay for measuring an analgesic effect of a compound in chronic pain (in particular peripheral neuropathy) is the model known as Kim and Chung 1992, Pain […], pp 355-363 (Chung model). This model involves the surgical ligation of the L5 (and optionally the L6) spinal nerves on one side in experimental animals. Rats recovering from the surgery gain weight and display a level of general activity similar to that of normal rats. However, these rats develop abnormalities of the foot, wherein the hindpaw is moderately everted and the toes are held together. More importantly, the hindpaw on the side affected by the surgery appears to become sensitive to low-threshold mechanical stimuli and will perceive pain instead of the faint sensation of touch. This sensitivity to normally non-painful touch, called “tactile allodynia”, develops within the first week after surgery and lasts for at least two months. The allodynia response includes lifting the affected hindpaw to escape from the stimulus, licking the paw and holding it in the air for many seconds. None of these responses is normally seen in the control group.
To produce the tactile allodynia, rats are anesthetized before surgery. The surgical site is shaved and prepared either with betadine or Novacaine. Incision is made from the thoracic vertebra X111 down toward the sacrum. Muscle tissue is separated from the spinal vertebra (left side) at the L4-S2 levels. The L6 vertebra is located and the transverse process is carefully removed with a small rongeur to expose the L4-L6 spinal nerves. The L5 and L6 spinal nerves are isolated and tightly ligated with 6-0 silk thread. The same procedure is done on the right side as a control, except no ligation of the spinal nerves is performed.
After a complete hemostasis is confirmed, the wounds are sutured. A small amount of antibiotic ointment is applied to the incised area, and the rat is transferred to the recovery plastic cage under a regulated heat-temperature lamp.
On the day of the experiment, at least seven days after the surgery, typically six rats per test group are administered the test drugs by intraperitoneal (i.p.) injection or oral gavage (p.o.). For i.p. administration, the compounds are formulated in H2O and given in a volume of 1 ml/kg body weight by injecting into the intraperitoneal cavity. For p.o. administration, the compounds are formulated in H2O and given in a volume of 1 ml/kg body weight using an 18-gauge, 3 inch gavage needle that is slowly inserted through the esophagus into the stomach.
Tactile allodynia is assessed via von Frey hairs, which are a series of fine hairs with incremental differences in stiffness. Rats are placed in a plastic cage with a wire mesh bottom and allowed to acclimate for approximately 30 minutes. To establish the pre-drug baseline, the von Frey hairs are applied perpendicularly through the mesh to the mid-plantar region of the rats' hindpaw with sufficient force to cause slight buckling and held for 6-8 seconds. The applied force has been calculated to range from 0.41 to 15.1 grams. If the paw is sharply withdrawn, it is considered a positive response. A normal animal will not respond to stimuli in this range, but a surgically ligated paw will be withdrawn in response to a 1-2 gram hair. The 50% paw withdrawal threshold is determined using the method of Dixon, W. J., Ann. Rev. Pharmacol. Toxicol. 20:441-462 (1980) hereby incorporated by reference. Tactile allodynia is measured prior to and 15, 30, and 60 minutes after drug administration. The post-drug threshold is compared to the pre-drug threshold and the percent reversal of tactile sensitivity is calculated based on a normal threshold of 15.1 grams.
Table 1 below indicates the degree of pain reversal obtained in the Chung model with exemplary compounds of the invention. […]

In order of rising “Peak % Pain reversal: time post dose” value:
1. Cl.Cl.N[C@H](C(=O)N1CC[C@@H](O)C1)[C@H](O)c1ccncc1 [Compound 247, (2S,3R)- & (2R,3S)-2-Amino-1-((R)-3-hydroxypyrrolidin-1-yl)-3-hydroxy-3-(pyridin-4-yl)propan-1-one dihydrochlorides]  42% 60 min
2. Cl.Cl.N[C@H](C(=O)N1CC[C@H](F)C1)[C@H](O)c1ccsc1 [Compound 256, (2S,3R)- & (2R,3S)-2-Amino-1-((S)-3-fluoropyrrolidin-1-yl)-3-hydroxy-3-(thiophen-3-yl)propan-1-one dihydrochlorides]  62% 60 min

Same assay, conditions: Rattus norvegicus, ip, 0.5 h, 300 μg/kg IP, peak at 30 min post dose, read-out: Peak % Pain reversal: time post dose

In order of rising inhibition in vivo at 0.3 mg/kg:
1. N[C@@H](C(=O)N1CCCC1)[C@H](O)c1ccncc1 [Compound 220, (−)-(2R,3R)-2-amino-3-hydroxy-3-(pyridin-4-yl)-1-(pyrrolidin-1-yl)propan-1-one dihydrochloride]  32%
2. O=C(N[C@@H](C(=O)N1CCCC1)[C@@H](O)c1ccncc1)c1ccc(Cl)c(Cl)c1 (racemic) [Compound 57, 3,4-Dichloro-N-(DL-threo-1-Hydroxy-3-oxo-1-(pyridin-4-yl)-3-(pyrrolidin-1-yl)propan-2-yl)benzamide]  51%
3. NC(C(=O)N1CCCC1)C(O)c1ccsc1 (single isomer, unassigned; (+)) [Compound 205, (+)-threo-2-Amino-3-hydroxy-1-(pyrrolidin-1-yl)-3-(thiophen-3-yl)propan-1-one hydrochloride]  62%
4. N[C@@H](C(=O)N1CCC(F)(F)C1)[C@@H](O)c1ccncc1 (racemic) [Compound 213, (±)-threo-2-Amino-1-(3,3-difluoropyrrolidin-1-yl)-3-hydroxy-3-(pyridin-4-yl)propan-1-one dihydrochloride]  85%
5. O=C([C@H](NCc1cccc(I)c1)[C@@H](O)c1ccncc1)N1CCCC1 (racemic) [Compound 227, (±)-threo-2-(3-iodobenzylamino)-3-hydroxy-3-(pyridin-4-yl)-1-(pyrrolidin-1-yl)-propan-1-one dihydrochloride]  95%

Same assay, conditions: Rattus norvegicus, ip, 1 h, 30 μg/kg IP, peak at 60 min post dose, read-out: Peak % Pain reversal: time post dose

In order of falling inhibition in vivo at 0.03 mg/kg:
1. N[C@@H](C(=O)N1CCCC1)[C@@H](O)c1cccnc1 (racemic) [Compound 20, DL-threo-2-Amino-3-hydroxy-3-(pyridin-3-yl)-1-(pyrrolidin-1-yl)propan-1-one dihydrochloride]  92%
2. NC(C(=O)N1CC[C@H](F)C1)C(O)c1ccncc1 (stereo partly drawn) [Compound 214, (2S,3R)- & (2R,3S)-2-Amino-1-((S)-3-fluoropyrrolidin-1-yl)-3-hydroxy-3-(pyridin-4-yl)propan-1-one dihydrochlorides]  86%
3. N[C@@H](C(=O)N1CCCC1)[C@H](O)c1ccncc1 (racemic) [Compound 219, (±)-erythro-2-amino-3-hydroxy-3-(pyridin-4-yl)-1-(pyrrolidin-1-yl)propan-1-one dihydrochloride]  82%

Same assay, conditions: Rattus norvegicus, ip, 1 h, 100 μg/kg IP, peak at 60 min post dose, read-out: Peak % Pain reversal: time post dose

In the case of `N[C@@H](C(=O)N1CCCC1)[C@@H](O)c1ccc[nH]c1=O` (racemic) [Compound 49, 3-(DL-threo-2-Amino-1-hydroxy-3-oxo-3-pyrrolidin-1-yl-propyl)-1H-pyridin-2-one hydrochloride], the inhibition in vivo at 0.1 mg/kg is reported as 85%.

Same assay, conditions: Rattus norvegicus, ip, 1 h, 300 μg/kg IP, peak at 60 min post dose, read-out: Peak % Pain reversal: time post dose

In order of rising inhibition in vivo at 0.3 mg/kg:
1. CCN(CC)C(=O)[C@H](N)[C@@H](O)c1ccncc1 (racemic) [Compound 40, DL-threo-2-Amino-N,N-diethyl-3-hydroxy-3-(pyridin-4-yl)propanamide dihydrochloride]  47%
2. N[C@@H](C(=O)N1CCCC1)[C@@H](O)c1cccc2ccccc12 (racemic) [Compound 29, DL-threo-2-Amino-3-hydroxy-3-(naphthalen-1-yl)-1-(pyrrolidin-1-yl)propan-1-one hydrochloride]  47%
3. O=C(N[C@@H](C(=O)N1CCCC1)[C@@H](O)c1ccncc1)c1ccccc1 (racemic) [Compound 55, N-(DL-threo-1-Hydroxy-3-oxo-1-(pyridin-4-yl)-3-(pyrrolidin-1-yl)propan-2-yl)benzamide hydrochloride]  58%
4. O=C([C@H](N[C@@H](CO)c1ccccc1)[C@@H](O)c1ccncc1)N1CCCC1 [Compound 234, (2R,3S)-2-((R)-2-Hydroxy-1-phenylethylamino)-3-hydroxy-3-(pyridin-4-yl)-1-(pyrrolidin-1-yl)propan-1-one dihydrochloride]  59%
5. N[C@@H](C(=O)N1CCCC1)[C@@H](O)c1cccs1 (racemic) [Compound 24, DL-threo-2-Amino-3-hydroxy-1-(pyrrolidin-1-yl)-3-(thiophen-2-yl)propan-1-one hydrochloride]  60%
6. N[C@@H](C(=O)N1CC=CC1)[C@@H](O)c1ccnc(Cl)c1 (racemic) [Compound 34, DL-threo-2-Amino-3-(2-chloropyridin-4-yl)-3-hydroxy-1-(2H-pyrrol-1 (5H)-yl)propan-1-one dihydrochloride]  62%
7. Cn1ccnc1[C@H](O)[C@@H](N)C(=O)N1CCCC1 (racemic) [Compound 254, (±)-threo-2-Amino-3-hydroxy-3-(1-methyl-1H-imidazol-2-yl)-1-(pyrrolidin-1-yl)propan-1-one dihydrochloride]  62%
8. COc1ccc(C(=O)N[C@@H](C(=O)N2CCCC2)[C@@H](O)c2ccncc2)cc1 (racemic) [Compound 56, N-(DL-threo-1-Hydroxy-3-oxo-1-(pyridin-4-yl)-3-(pyrrolidin-1-yl)propan-2-yl)-4-methoxy-benzamide hydrochloride]  67%
9. O=C(N[C@@H](C(=O)N1CCCC1)[C@@H](O)c1ccncc1)OCc1ccccc1 (racemic) [Compound 58, Benzyl DL-threo-3-hydroxy-1-oxo-3-(pyridin-4-yl)-1-(pyrrolidin-1-yl)propan-2-ylcarbamate hydrochloride]  75%
10. COc1ccc(CN[C@@H](C(=O)N2CCCC2)[C@@H](O)c2ccncc2)cc1 (racemic) [Compound 67, DL-threo-2-(4-Methoxybenzylamino)-3-hydroxy-3-(pyridin-4-yl)-1-(pyrrolidin-1-yl)propan-1-one one]  78%
11. N[C@@H](C(=O)N1CCCC1)[C@@H](O)c1ccc(I)cc1 (racemic) [Compound 210, (±)-threo-2-Amino-3-hydroxy-3-hydroxy-3-(4-iodophenyl)-1-(pyrrolidin-1-yl)propan-1-one dihydrochloride]  78%
12. N[C@@H](C(=O)N1CCOCC1)[C@@H](O)c1cccnc1 (racemic) [Compound 232, (±)-threo-2-Amino-3-hydroxy-1-morpholino-3-(pyridin-3-yl)propan-1-one dihydrochloride]  80%
13. N[C@@H](C(=O)N1CCCC1)[C@@H](O)c1csc2ccccc12 (racemic) [Compound 26, hydrochloride]  92%
14. N[C@@H](C(=O)N1CCCCC1)[C@@H](O)c1ccncc1 (racemic) [Compound 35, DL-threo-2-Amino-3-hydroxy-3-(pyridin-4-yl)-1-(piperidin-1-yl)propan-1-one dihydrochloride]  92%
15. O=C([C@H](NCc1ccccc1I)[C@@H](O)c1ccncc1)N1CCCC1 (racemic) [Compound 226, (±)-threo-2-(2-iodobenzylamino)-3-hydroxy-3-(pyridin-4-yl)-1-(pyrrolidin-1-yl)-propan-1-one dihydrochloride]  95%
